A word on the EC50: it is the concentration needed to bring the measured effect to its halfway point. Low readings indicate higher potency in that assay, high ones lower potency in that assay.

Each structure is given as a SMILES string.

This test has as its target T1, human TREM2 (Homo sapiens, UniProt Q9NZC2).
T1 construct: expressed in transfected cells; host or cells: HEK293T
The test is described as follows: TREM2 agonist potency by cellular Syk phosphorylation (AlphaLisa) in HEK293T-hTREM2 cells. As to conditions: Table D-2; HEK293 cells expressing human TREM2 and DAP12; pSyk AlphaLisa. In kind it is cell-based. The protocol: In vitro Measurement of Triggering Receptor Expressed on Myeloid Cells 2 activity using cellular phosphorylation of Spleen Tyrosine Kinase (“Syk”) Assays
Measurement of TREM2 agonist potency was done using a HEK cell line expressing human TREM2 and DAP12 (HEK293T-hTREM2 cells). Binding of small molecules to, and activation of, TREM2 increases the phosphorylation of Syk. The resultant levels of Syk phosphorylation are measured using a commercial AlphaLisa reagent kit. To perform the assay, HEK-hTREM2 cells were plated at 14,000 cells per well in a 384 well plate, in 25 µL of complete growth media and incubated at 37° C., 5% CO2 for 20-24 hours.
Prior to the assay, test compounds were diluted in the 384 well plates in assay buffer and allowed to equilibrate for 30 minutes. Growth media was removed from cell plates by inversion on blotting paper, and 25 μL of test articles in assay buffer was added to cells. Cells were incubated for 45 minutes at room temperature. After 45 minutes, assay buffer was removed and 10 μL of lysis buffer was added. Plates were shaken for 20 minutes at 350 RPM at room temperature. After complete lysis, AlphaLisa reagents were added to the lysate, and fluorescence intensity was measured using a Perkin Elmer Envision plate reader. Intensities were used to generate a standard curve, and % activation was calculated. Curve fitting was performed using Prism v9 software, log(agonist) vs response—variable slope (four parameters), and EC50s were calculated from the curve fit.
The results presented in Table D have been generated with the in vitro assay described above. This assay may be used to test any of the compounds described herein to assess and characterize a compound's ability to act as an agonist of TREM2.

T1 sequence (Q9NZC2 19-230): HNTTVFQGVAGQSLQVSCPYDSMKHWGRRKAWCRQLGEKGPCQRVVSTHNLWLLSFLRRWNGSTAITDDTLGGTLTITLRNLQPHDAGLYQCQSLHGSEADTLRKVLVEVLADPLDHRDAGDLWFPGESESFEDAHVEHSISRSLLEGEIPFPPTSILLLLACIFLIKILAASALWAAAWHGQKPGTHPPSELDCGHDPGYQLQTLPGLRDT
T1 sequence (O43914 22-113 partner): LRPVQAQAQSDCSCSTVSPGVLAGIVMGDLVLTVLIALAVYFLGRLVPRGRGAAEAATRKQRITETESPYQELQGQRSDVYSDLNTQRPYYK

As to `Cc1cc([C@H]2C[C@@H](c3nc(-c4ccc(F)cc4F)c4sc(N(C)C)nc4n3)CCO2)ccn1` [Compound I-268, 7-(2,4-difluorophenyl)-N,N-dimethyl-5-[(2R,4S)-2-(2-methyl-4-pyridyl)tetrahydropyran-4-yl]thiazolo[4,5-d]pyrimidin-2-amine], the EC50 was 50 to 500 nM.

The values above are taken from patent publication US20260159528A1, “HETEROCYCLIC COMPOUNDS AS TRIGGERING RECEPTOR EXPRESSED ON MYELOID CELLS 2 AGONISTS AND METHODS OF USE” (Vigil Neuroscience, Inc., priority 2021, published 2026).
